Common to all, as to type: in vivo
For data set [1], the system named is green peach aphid (Myzus persicae). Description: Myzus persicae test (Example A), spray on infested cabbage leaves. The settings on record: single compound. As to the method: (§1) To produce a suitable preparation of active compound, 1 part by weight of active compound is mixed with the stated amount of solvent and emulsifier, and the concentrate is diluted with emulsifier-containing water to the desired concentration.
(§2) Cabbage leaves (Brassica oleracea) which are heavily infested by the green peach aphid (Myzus persicae) are treated by being sprayed with the preparation of the active compound at the desired concentration.
(§3) After the specified period of time, the mortality in % is determined. 100% means that all the aphids have been killed; 0% means that none of the aphids have been killed.

Data set [2] relates to larvae of the fall army worm (Spodoptera frugiperda). Nature of the data set: Spodoptera frugiperda test (Example C), sprayed cabbage leaves. The following applies: single compound. As to the method: as §1
Cabbage leaves (Brassica oleracea) are treated by being sprayed with the preparation of the active compound at the desired concentration and are infested with larvae of the fall army worm (Spodoptera frugiperda) as long as the leaves are still moist.
After the specified period of time, the mortality in % is determined. 100% means that all the caterpillars have been killed; 0% means that none of the caterpillars have been killed. According to the present application in this test e.g. the following combinations show a synergistic effect in comparison to the single compounds: […]

In data set [3] the test system is cotton aphid (Aphis gossypii). Nature of the data set: Aphis gossypii test (Example D), spray on infested cotton leaves. The following applies: single compound. Here is the method: Solvent: 7 parts by weight of dimethylformamide Emulsifier: 2 parts by weight of alkylaryl polyglycolether
as §1
Cotton leaves (Gossypium hirsutum) which are heavily infested by the cotton aphid (Aphis gossypii) are treated by being sprayed with the preparation of the active compound at the desired concentration.
as §3

The test system of data set [4] is green peach aphid (Myzus persicae). Nature of the data set: Myzus persicae test (Example E), spray on infested cabbage leaves. The following applies: single compound. Here is the method: as §1, §2, §3
The test system of data set [5] is larvae of the mustard beetle (Phaedon cochleariae). Nature of the data set: Phaedon cochleariae larvae test (Example B), sprayed cabbage leaves. The following applies: 144 h, single compound, after 6 d. As to the method: as §1
Cabbage leaves (Brassica oleracea) are treated by being sprayed with the preparation of the active compound at the desired concentration and are infested with larvae of the mustard beetle (Phaedon cochleariae) as long as the leaves are still moist.
After the specified period of time, the mortality in % is determined. 100% means that all the beetle larvae have been killed; 0% means that none of the beetle larvae have been killed. According to the present application in this test e.g. the following combinations show a synergistic effect in comparison to the single compounds: […]

[6] abbreviates: Myzus persicae, 144 h, 500 g/ha, after 6 d.

As to `Cn1cc(C(=O)Nc2ccc(F)cc2-c2ccc(Cl)c(Cl)c2)c(C(F)F)n1` [Bixafen, bixafen], the “Mortality in % after 6 d” value is given as 0% in data set [1] (500 g/ha) and 17% in data set [2] (500 g/ha).

Consider `Cc1nn(C)c(F)c1C(=O)Nc1ccccc1C(C)CC(C)C` (stereo not drawn) [Penflufen, penflufen], for which the “Mortality in % after 6 d” value in data set [3] (200 g/ha) and in data set [4] (200 g/ha) was 0% in each case.

Broadly, the mortality is the share of the test organisms that died. `CNC(=O)/C(=N/OC)c1ccccc1Oc1ccccc1` [Metominostrobin, metominostrobin] showed a mortality at 500 g/ha in data set [1] (setting [6]) of 0%.

Consider `CO/N=C(/C1=NOCCO1)c1ccccc1Oc1ncnc(Oc2ccccc2Cl)c1F` [Fluoxastrobin, fluoxastrobin], for which the mortality at 500 g/ha in data set [1] (setting [6]) is 0%.

As to `CSC1=N[C@@](C)(c2ccccc2)C(=O)N1Nc1ccccc1` [Fenamidone, fenamidone], the mortality at 200 g/ha in data set [3] (Aphis gossypii, 144 h, 200 g/ha, after 6 d) was 0%; in data set [4] (Myzus persicae, 144 h, 200 g/ha, after 6 d), 0%.

In the case of `CC1(C)[C@H](C=C(Cl)Cl)[C@H]1C(=O)OCc1c(F)c(F)cc(F)c1F` [Transfluthrin], the mortality at 20 g/ha in data set [1] (Myzus persicae, 144 h, 20 g/ha, after 6 d) was determined as 70%; in data set [5] (20 g/ha) it was 0%. Moreover, in data set [1] (Myzus persicae, 144 h, 100 g/ha, after 6 d), the mortality at 100 g/ha amounted to 80%. For the same compound, the mortality at 10 g/ha came out at 5% in data set [3] (Aphis gossypii, 144 h, 10 g/ha, after 6 d) and 0% in data set [4] (Myzus persicae, 144 h, 10 g/ha, after 6 d). The mortality at 4 g/ha in data set [2] (Spodoptera frugiperda, 144 h, 4 g/ha, after 6 d) is 50%.

In turn, `COC(=O)N(OC)c1ccccc1COc1ccn(-c2ccc(Cl)cc2)n1` [Pyraclostrobin, pyraclostrobin] yielded a mortality at 500 g/ha in data set [1] (setting [6]) of 0%.

The compound `CON=C(C(=O)OC)c1ccccc1CON=C(C)c1cccc(C(F)(F)F)c1` [Trifloxystrobin, trifloxystrobin] registered a mortality at 500 g/ha in data set [1] (setting [6]) of 0%.

For the compound `O=C(NCCc1ncc(C(F)(F)F)cc1Cl)c1ccccc1C(F)(F)F` [Fluopyram, fluopyram], the mortality at 500 g/ha in data set [1] (setting [6]) and in data set [5] (500 g/ha) was 0% in each case.
